We go through 1 compound from patent US20210204568A1, “CBD-[…]” (THC PHARM GMBH THE HEALTH CONCEPT, priority 2014, published 2021).

The subject of this experiment is freely moving rats. The experiment is described as follows: Electropharmacogram (EEG spectral power and physical activity) of freely moving rats after a CBD liquid formulation. The format is in vivo, rat. The procedure:
FIGS. 1 to 3 show electropharmacograms from electroencephalography (EEG) of adult rats (>3 months old), wherein a dosage of 1 mg/kg (body weight) (FIG. 1), 5 mg/kg (body weight (FIGS. 2), and 15 mg/kg (body weight) (FIG. 3) cannabidiol was administered in the form of a liquid formulation.
Under general anesthesia, four depth electrodes were implanted into the prefrontal cortex, the hippocampus, the striatum, and the reticular formation of the rats. From the head of the rats, signals are wirelessly transmitted by radio to a computer. At the same time, the physical activity is measured.
The signals are subjected to a frequency analysis, for example using the fast Fourier transform (FFT), and the frequency content of a signal is determined. In the case of EEG data, the spectrum is divided into multiple regions, which historically are denoted by delta, theta, alpha and beta.
After the division into seven frequency ranges ((1) to (7), see FIGS. 1-3), the changes in the electric output after administration of a liquid formulation according to the invention comprising cannabidiol can be quantified and, taking the signals of the four brain regions into consideration, a specific change pattern, referred to as the “electropharmacogram (supra)”, is obtained (Dimpfel W., Pharmacological classification of herbal extracts by means of comparison to spectral EEG signatures induced by synthetic drugs in the freely moving rat. Journal of Ethnopharmacology 2013, 149, 583-589).
Time-dependent progression of the electric output (“spectral power”) (ordinate) in percent from the 45-minute long pre-drug base line (values) in four brain regions of freely moving rats in the presence of a vehicle (4 ml/kg). The frequency ranges are depicted as bars on the abscissa, specifically delta (1), theta (2), alpha1 (3), alpha2 (4), beta1a (5), beta1b (6) and gamma spectral power (7) from left to right, depending on the named brain region, The statistical significance is represented in stars compared to the control group (vehicle): *=p<0.05; **=p<0.01.

[1] abbreviates: dosage of 1 mg/kg to 5 mg/kg, adult rats.
The mark [2] stands for this setting: high dosages, 5 or 15 mg/kg (body weight).

Take `C=C(C)[C@@H]1CCC(C)=C[C@H]1c1c(O)cc(CCCCC)cc1O` [CBD, 2-[1R-3-methyl-6-(1-methylethenyl]--cyclohexen-1-yl]-5-pentyl-1,3-benzenediol]: under setting [1], the “duration for which the specific increase in gamma spectral power can be observed” value is on record as “at least 4 hours” and the “gamma spectral power in the hippocampus” value was “not at all”. Besides, the “gamma spectral power within the striatum” value (dosage of 1 mg/kg to 5 mg/kg, adult rats, FIG. 1) was “increase”. Besides, where the note is “dosage of 15 mg/kg, adult rats, FIG. 3”, the gamma spectral power result is given as “no specific increase”. Besides, under setting [2], the “EEG pattern or electropharmacogram compared with drug classes” value is “corresponds to that of certain antidepressants and analgesic drugs”; the activity index result is reported as “significant decrease”. Further, under “high dosages, 5 or 15 mg/kg (body weight), FIGS. 2 and 3”, the “effect according to the electropharmacogram” value is recorded as “sedating effect”. For the same compound, for the setting “lowest dosage, less than 5 mg/kg, preferably 1 mg/kg (body weight)”, the “effect according to the electropharmacogram” value is “activating and invigorating effect”.
